Values belong to the compound of their own block, whether it stands above or below them.
Tests used:
[1] = tested on: isolated rabbit hearts; assay: coronary vasodilator activity on isolated rabbit hearts; details: for Vasodilator Activity Rabbit, relative to PGE1 taken as 1: relative to PGE1 = 1; for coronary vasodilator activity, times as potent as PGE1: isolated rabbit hearts, vs PGE1
[2] = tested on: blood platelet aggregation; assay: inhibitory activity on adenosine diphosphate-induced blood platelet aggregation in platelet-rich plasma of rats; assay type: cell-based, rat; details: for Inhibitory Activity on Blood Platelet Aggregation Rat, relative to PGE1 taken as 1: relative to PGE1 = 1; for inhibitory activity on adenosine diphosphate-induced blood platelet aggregation, times as potent as PGE1: rat platelet-rich plasma, vs PGE1
[3] = tested on: blood platelet aggregation; assay: inhibitory activity on adenosine diphosphate-induced blood platelet aggregation in platelet-rich plasma of humans; assay type: cell-based, human; details: for Inhibitory Activity on Blood Platelet Aggregation Human, relative to PGE1 taken as 1: relative to PGE1 = 1; for inhibitory activity on adenosine diphosphate-induced blood platelet aggregation, times as potent as PGE1: human platelet-rich plasma, vs PGE1
[4] = tested on: dogs; assay: hypotensive activity, intravenous administration to allobarbital-anaesthetised dogs; assay type: in vivo, dog; details: for Hypotensive Activity Dog (i.v.), relative to PGE1 taken as 1: relative to PGE1 = 1; for useful activities (hypotensive, blood platelet aggregation inhibitory, vasodilator): in words, summary of the Table; for hypotensive activity, times as potent as PGE1: intravenous, allobarbital-anaesthetised dogs, vs PGE1
[5] = tested on: mice; details: mouse, in vivo; for Diarrhoea-inducing Activity Mice (p.o.), relative to PGE1 taken as 1 / diarrhoea-inducing activity compared with PGE1: po
[6] = tested on: spontaneously hypertensive rats; assay: hypotensive activity, oral administration to conscious spontaneously hypertensive rats; assay type: in vivo, rat; details: for Hypotensive Activity Rat (p.o.), relative to PGE1 taken as 1: relative to PGE1 = 1; for hypotensive activity, times as potent as PGE1: oral, conscious spontaneously hypertensive rats, vs PGE1
Description: In the Table, all the activities are indicated relative to the activity of PGE1, taken as 1.

[7] = acute toxicity tests, intravenous or oral administration to mice; details: mouse, in vivo
Protocol: Acute toxicity tests on the compounds of the present invention were conducted by administering them intravenously or orally to mice.

Diarrhoea-inducing Activity Mice (p.o.), relative to PGE1 taken as 1 [5]: 270.6
Structure (SMILES): CCCC[C@@H](C)[C@H](O)/C=C/[C@H]1[C@H](O)CC(=O)[C@@H]1CCCC/C=C/C(=O)O [A, 9-oxo-11α,15α-dihydroxy-16R-methylprosta-trans-2,trans-13-dienoic acid, reference compound]
Vasodilator Activity Rabbit, relative to PGE1 taken as 1 [1]: 2-3 | Inhibitory Activity on Blood Platelet Aggregation Rat, relative to PGE1 taken as 1 [2]: 2.84 | Inhibitory Activity on Blood Platelet Aggregation Human, relative to PGE1 taken as 1 [3]: 1.6 | Hypotensive Activity Dog (i.v.), relative to PGE1 taken as 1 [4]: 9.5

Diarrhoea-inducing Activity Mice (p.o.), relative to PGE1 taken as 1 [5]: < 1
Structure (SMILES): CCCC(CC)C[C@H](O)/C=C/[C@H]1[C@H](O)CC(=O)[C@@H]1CCCC/C=C/C(=O)O (stereo partly drawn) [B, 9-oxo-11α,15α-dihydroxy-17-ethylprosta-trans-2,trans-13-dienoic acid, reference compound]
Vasodilator Activity Rabbit, relative to PGE1 taken as 1 [1]: 1.0 | Inhibitory Activity on Blood Platelet Aggregation Rat, relative to PGE1 taken as 1 [2]: 14.5 | Hypotensive Activity Rat (p.o.), relative to PGE1 taken as 1 [6]: 10 | Inhibitory Activity on Blood Platelet Aggregation Human, relative to PGE1 taken as 1 [3]: 22.1 | Hypotensive Activity Dog (i.v.), relative to PGE1 taken as 1 [4]: 1.5

Diarrhoea-inducing Activity Mice (p.o.), relative to PGE1 taken as 1 [5]: 11.9
Structure (SMILES): CC(c1ccccc1)[C@H](O)/C=C/[C@H]1[C@H](O)CC(=O)[C@@H]1CCCC/C=C/C(=O)O (stereo partly drawn) [C, 9-oxo-11α,15α-dihydroxy-16-phenyl-18,19,20-trinorprosta-trans-2,trans-13-dienoic acid, reference compound]
Vasodilator Activity Rabbit, relative to PGE1 taken as 1 [1]: 0.3 | Hypotensive Activity Dog (i.v.), relative to PGE1 taken as 1 [4]: 39.0

Diarrhoea-inducing Activity Mice (p.o.), relative to PGE1 taken as 1 [5]: 3.2
Structure (SMILES): CCCCCC(CC)C[C@H](O)/C=C/[C@H]1[C@H](O)CC(=O)[C@@H]1CCCC/C=C/C(=O)O (stereo partly drawn) [D, 9-oxo-11α,15α-dihydroxy-17,20-diethylprosta-trans-2,trans-13-dienoic acid, reference compound]
Vasodilator Activity Rabbit, relative to PGE1 taken as 1 [1]: < 0.1 | Inhibitory Activity on Blood Platelet Aggregation Rat, relative to PGE1 taken as 1 [2]: 1.4 | Hypotensive Activity Rat (p.o.), relative to PGE1 taken as 1 [6]: 30-100 | Inhibitory Activity on Blood Platelet Aggregation Human, relative to PGE1 taken as 1 [3]: 2.4 | Hypotensive Activity Dog (i.v.), relative to PGE1 taken as 1 [4]: 1.45

Diarrhoea-inducing Activity Mice (p.o.), relative to PGE1 taken as 1 [5]: 1.7
Structure (SMILES): CCCCCC(CC)C[C@H](O)/C=C/[C@H]1[C@H](O)CC(=O)[C@@H]1CCCC/C=C/C(=O)OC (stereo partly drawn) [E, methyl 9-oxo-11α,15α-dihydroxy-17,20-diethylprosta-trans-2,trans-13-dienoate, reference compound]
Vasodilator Activity Rabbit, relative to PGE1 taken as 1 [1]: 0.1 | Inhibitory Activity on Blood Platelet Aggregation Rat, relative to PGE1 taken as 1 [2]: 2.2 | Hypotensive Activity Rat (p.o.), relative to PGE1 taken as 1 [6]: 10 | Inhibitory Activity on Blood Platelet Aggregation Human, relative to PGE1 taken as 1 [3]: 0.14 | Hypotensive Activity Dog (i.v.), relative to PGE1 taken as 1 [4]: 0.88

Structure (SMILES): CCCC[C@H](C)C[C@H](O)/C=C/[C@H]1[C@H](O)CC(=O)[C@@H]1CCCC/C=C/C(=O)O [F, 9-oxo-11α,15α-dihydroxy-17S,20-dimethylprosta-trans-2,trans-13-dienoic acid]
Vasodilator Activity Rabbit, relative to PGE1 taken as 1 [1]: 19.0 | coronary vasodilator activity, times as potent as PGE1 [1]: 19.0 times | Inhibitory Activity on Blood Platelet Aggregation Rat, relative to PGE1 taken as 1 [2]: 81.6 | inhibitory activity on adenosine diphosphate-induced blood platelet aggregation, times as potent as PGE1 [2]: 81.6 times | Hypotensive Activity Rat (p.o.), relative to PGE1 taken as 1 [6]: 100 | hypotensive activity, times as potent as PGE1 [6]: 100 times | Inhibitory Activity on Blood Platelet Aggregation Human, relative to PGE1 taken as 1 [3]: 38.5 | inhibitory activity on adenosine diphosphate-induced blood platelet aggregation, times as potent as PGE1 [3]: 38.5 times | LD50 ([7]; intravenous administration): ~12 mg/kg | LD50 ([7]; oral administration): ~50 mg/kg | Hypotensive Activity Dog (i.v.), relative to PGE1 taken as 1 [4]: 10.0 | useful activities (hypotensive, blood platelet aggregation inhibitory, vasodilator) [4]: extremely strong | hypotensive activity, times as potent as PGE1 [4]: 10 times | diarrhoea-inducing (side-effect) activity compared with the known compounds [5]: weaker | Diarrhoea-inducing Activity Mice (p.o.), relative to PGE1 taken as 1 [5]: < 1 | diarrhoea-inducing activity compared with PGE1 [5]: lower diarrhoea-inducing activity than PGE1

Diarrhoea-inducing Activity Mice (p.o.), relative to PGE1 taken as 1 [5]: < 1
Structure (SMILES): CCCC[C@@H](C)C[C@H](O)/C=C/[C@H]1[C@H](O)CC(=O)[C@@H]1CCCC/C=C/C(=O)O [G, 9-oxo-11α,15α-dihydroxy-17R,20-dimethylprosta-trans-2,trans-13-dienoic acid]
Vasodilator Activity Rabbit, relative to PGE1 taken as 1 [1]: 14.0 | coronary vasodilator activity, times as potent as PGE1 [1]: 14.0 times | Inhibitory Activity on Blood Platelet Aggregation Rat, relative to PGE1 taken as 1 [2]: 70.5 | inhibitory activity on adenosine diphosphate-induced blood platelet aggregation, times as potent as PGE1 [2]: 70.5 times | Inhibitory Activity on Blood Platelet Aggregation Human, relative to PGE1 taken as 1 [3]: 48.1 | inhibitory activity on adenosine diphosphate-induced blood platelet aggregation, times as potent as PGE1 [3]: 48.1 times | Hypotensive Activity Dog (i.v.), relative to PGE1 taken as 1 [4]: 3.5 | useful activities (hypotensive, blood platelet aggregation inhibitory, vasodilator) [4]: extremely strong | hypotensive activity, times as potent as PGE1 [4]: 3.5 times | diarrhoea-inducing (side-effect) activity compared with the known compounds [5]: weaker | diarrhoea-inducing activity compared with PGE1 [5]: lower diarrhoea-inducing activity than PGE1

Diarrhoea-inducing Activity Mice (p.o.), relative to PGE1 taken as 1 [5]: < 1
Structure (SMILES): CCCC[C@H](C)C[C@H](O)/C=C/[C@H]1[C@H](O)CC(=O)[C@@H]1CCCC/C=C/C(=O)OC [H, methyl 9-oxo-11α,15α-dihydroxy-17S,20-dimethylprosta-trans-2,trans-13-dienoate]
Hypotensive Activity Rat (p.o.), relative to PGE1 taken as 1 [6]: 100 | hypotensive activity, times as potent as PGE1 [6]: 100 times | Hypotensive Activity Dog (i.v.), relative to PGE1 taken as 1 [4]: 5.0 | useful activities (hypotensive, blood platelet aggregation inhibitory, vasodilator) [4]: extremely strong | hypotensive activity, times as potent as PGE1 [4]: 5 times | diarrhoea-inducing (side-effect) activity compared with the known compounds [5]: weaker | diarrhoea-inducing activity compared with PGE1 [5]: lower diarrhoea-inducing activity than PGE1
